{
  "source": "patent US6649402B2",
  "about": "“Microfabricated microbial growth assay method and apparatus” (Wisconsin Alumni Research Foundation, priority 2001, dated 2003)",
  "tested_on": "E. coli K-12 MG 1655",
  "experiment": "microbial growth assay by impedance (capacitance and resistance) measurement in 30 μl wells",
  "type": "cell-based",
  "conditions": "37° C.",
  "protocol": "As an example of the utilization of the apparatus 20 of FIGS. 1 and 2, a single colony of E. coli K-12 MG 1655 was used to inoculate five ml of Luria Broth (LB) which was grown overnight at 37° C. with constant aeration. A 1% inoculum was used to subculture in fresh LB medium and grew to OD600 of 0.5 (measured by a Beckman DU-20 spectrophotometer). 15 μl of cell culture was mixed with 15 μl of LB medium in samples with and without ampicillin (100 μg/ml), and aliquoted into the wells 22. In addition, an equal volume of LB medium (30 μl) with ampicillin was aliquoted into an additional well to function as a negative control.\nThe switch/control unit 34 was used to switch the connection of the LCR meter 36 to the conductors 30 and 31 leading to the electrodes of the wells 22 in sequence. A 10 mV rms alternating current signal of varying frequency (between 75 kHz and 30 MHz) was used for electrical excitation and was applied between the electrodes 24 and 25. […] At each frequency, impedance (capacitance and resistance) was measured between the electrodes 24 and 25 for each of the four wells. […] The values of the impedance (assuming a parallel RC equivalent circuit model, resistance and capacitance, R and C) between the electrodes 24 and 25 at each of the cells was recorded periodically over about 16 hours under the control of the computer 41. […]",
  "data": [
    {"smiles": "CC1(C)S[C@@H]2[C@H](NC(=O)[C@H](N)c3ccccc3)C(=O)N2[C@H]1C(=O)O", "note": "[ampicillin]", "values": [
      {"measurement": "capacitance (and resistance) between the electrodes at a well containing bacteria over time", "setting": "ampicillin 100 μg/ml in LB medium, measured at 75 kHz and 400 kHz, about 16 hours, relative to control well without bacteria, without ampicillin capacitance increases exponentially", "value": "remains constant"},
      {"measurement": "time within which the antibacterial effect can be detected", "setting": "ampicillin 100 μg/ml, E. coli in LB medium, impedance readout", "value": "less than one hour"}
    ]}
  ]
}
